Drawing on publication doi:10.1101/2025.01.28.635346v1 (bioRxiv, 2025), this text covers IC50 for four compounds.

One assay deals with integrin αvβ1 (Homo sapiens, UniProt P05556+P06756). Put plainly: ELISA competition assay, integrin αvβ1. It is filed as binding. For orientation: ELISA stands for enzyme-linked immunosorbent assay.
For another assay, the target named is integrin αvβ5 (Homo sapiens, UniProt P06756+P18084). The assay is described as follows: ELISA competition assay, integrin αvβ5. The format is binding.
The next assay deals with integrin α5β1 (Homo sapiens, UniProt P05556+P08648). Put plainly: ELISA competition assay, integrin α5β1. The format is binding.
For assay [1], the target named is T1, integrin αvβ6 (Homo sapiens, UniProt P06756+P18564). Put plainly: ELISA competition assay, integrin αvβ6 binding to LAP. The settings on record: mean.
The target in assay [2] is T2, integrin αvβ8 (Homo sapiens, UniProt P06756+P26012). Put plainly: ELISA competition assay, integrin αvβ8 binding to LAP.
The next assay deals with integrin αvβ3 (Homo sapiens, UniProt P05106+P06756). Put plainly: ELISA competition assay, integrin αvβ3. The format is binding.
The next assay concerns the target integrin α8β1 (Homo sapiens, UniProt P05556+P53708). Put plainly: ELISA competition assay, integrin α8β1. It is filed as binding.
The target of a further assay is T3, Mouse αvβ6 (Mus musculus, UniProt P43406+Q9Z0T9).
T3 sequence (P43406 31-988 limits assumed): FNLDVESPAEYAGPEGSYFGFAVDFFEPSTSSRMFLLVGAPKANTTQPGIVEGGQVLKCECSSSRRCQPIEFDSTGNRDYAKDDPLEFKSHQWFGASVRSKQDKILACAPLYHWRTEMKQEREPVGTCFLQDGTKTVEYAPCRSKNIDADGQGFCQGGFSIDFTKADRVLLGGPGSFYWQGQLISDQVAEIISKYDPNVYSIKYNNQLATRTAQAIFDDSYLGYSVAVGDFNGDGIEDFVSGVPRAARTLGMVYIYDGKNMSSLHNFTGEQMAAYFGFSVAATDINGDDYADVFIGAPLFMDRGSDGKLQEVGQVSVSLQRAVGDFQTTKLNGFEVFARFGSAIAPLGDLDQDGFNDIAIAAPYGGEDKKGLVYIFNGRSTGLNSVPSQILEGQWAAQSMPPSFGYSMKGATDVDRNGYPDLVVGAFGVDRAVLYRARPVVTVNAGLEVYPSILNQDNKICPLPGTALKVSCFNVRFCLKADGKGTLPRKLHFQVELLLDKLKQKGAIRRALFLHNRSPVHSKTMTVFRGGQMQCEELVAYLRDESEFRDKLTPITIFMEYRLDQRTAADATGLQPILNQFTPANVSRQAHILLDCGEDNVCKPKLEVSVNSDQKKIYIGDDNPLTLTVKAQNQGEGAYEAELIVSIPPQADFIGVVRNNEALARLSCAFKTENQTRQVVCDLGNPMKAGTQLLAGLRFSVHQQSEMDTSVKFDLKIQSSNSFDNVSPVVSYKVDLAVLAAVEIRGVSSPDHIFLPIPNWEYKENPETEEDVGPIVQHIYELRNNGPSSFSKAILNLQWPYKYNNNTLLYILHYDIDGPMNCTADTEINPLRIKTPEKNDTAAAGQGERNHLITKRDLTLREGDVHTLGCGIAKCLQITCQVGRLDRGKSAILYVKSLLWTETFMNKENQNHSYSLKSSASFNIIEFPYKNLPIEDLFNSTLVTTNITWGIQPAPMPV
T3 sequence (Q9Z0T9 22-707 limits assumed): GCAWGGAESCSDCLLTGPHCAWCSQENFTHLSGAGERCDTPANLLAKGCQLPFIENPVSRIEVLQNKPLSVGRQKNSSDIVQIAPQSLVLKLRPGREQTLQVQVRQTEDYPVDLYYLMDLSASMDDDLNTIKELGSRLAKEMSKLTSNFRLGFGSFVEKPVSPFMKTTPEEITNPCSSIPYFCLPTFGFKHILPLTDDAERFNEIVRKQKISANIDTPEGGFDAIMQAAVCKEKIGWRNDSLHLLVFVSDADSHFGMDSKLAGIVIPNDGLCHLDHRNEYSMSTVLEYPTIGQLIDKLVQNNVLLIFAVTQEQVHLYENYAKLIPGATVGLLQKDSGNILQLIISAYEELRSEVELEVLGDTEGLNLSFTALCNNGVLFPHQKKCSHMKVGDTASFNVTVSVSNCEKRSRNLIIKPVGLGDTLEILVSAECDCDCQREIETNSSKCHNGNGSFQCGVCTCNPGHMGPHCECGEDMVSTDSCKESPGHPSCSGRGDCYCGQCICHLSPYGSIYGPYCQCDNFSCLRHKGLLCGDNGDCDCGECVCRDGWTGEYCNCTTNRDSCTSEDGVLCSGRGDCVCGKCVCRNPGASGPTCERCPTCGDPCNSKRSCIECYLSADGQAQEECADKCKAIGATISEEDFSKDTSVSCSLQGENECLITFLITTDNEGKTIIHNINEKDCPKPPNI
The assay is described as follows: ELISA competition assay, mouse integrin αvβ6. The format is binding.

Assay [3] addresses T1, integrin αvβ6. The assay is described as follows: AlphaLISA competition assay vs LAP, biotinylated αvβ6. It is filed as binding. For orientation: In Alpha technology, singlet oxygen from a donor bead excites a nearby acceptor bead.
Assay [4] concerns the target T2, integrin αvβ8. Put plainly: AlphaLISA competition assay vs LAP, biotinylated αvβ8. The format is binding.
For another assay, the target named is T4, integrin αIIbβ3 (Homo sapiens, UniProt P05106+P08514).
T4 sequence (P08514 32-993 limits assumed): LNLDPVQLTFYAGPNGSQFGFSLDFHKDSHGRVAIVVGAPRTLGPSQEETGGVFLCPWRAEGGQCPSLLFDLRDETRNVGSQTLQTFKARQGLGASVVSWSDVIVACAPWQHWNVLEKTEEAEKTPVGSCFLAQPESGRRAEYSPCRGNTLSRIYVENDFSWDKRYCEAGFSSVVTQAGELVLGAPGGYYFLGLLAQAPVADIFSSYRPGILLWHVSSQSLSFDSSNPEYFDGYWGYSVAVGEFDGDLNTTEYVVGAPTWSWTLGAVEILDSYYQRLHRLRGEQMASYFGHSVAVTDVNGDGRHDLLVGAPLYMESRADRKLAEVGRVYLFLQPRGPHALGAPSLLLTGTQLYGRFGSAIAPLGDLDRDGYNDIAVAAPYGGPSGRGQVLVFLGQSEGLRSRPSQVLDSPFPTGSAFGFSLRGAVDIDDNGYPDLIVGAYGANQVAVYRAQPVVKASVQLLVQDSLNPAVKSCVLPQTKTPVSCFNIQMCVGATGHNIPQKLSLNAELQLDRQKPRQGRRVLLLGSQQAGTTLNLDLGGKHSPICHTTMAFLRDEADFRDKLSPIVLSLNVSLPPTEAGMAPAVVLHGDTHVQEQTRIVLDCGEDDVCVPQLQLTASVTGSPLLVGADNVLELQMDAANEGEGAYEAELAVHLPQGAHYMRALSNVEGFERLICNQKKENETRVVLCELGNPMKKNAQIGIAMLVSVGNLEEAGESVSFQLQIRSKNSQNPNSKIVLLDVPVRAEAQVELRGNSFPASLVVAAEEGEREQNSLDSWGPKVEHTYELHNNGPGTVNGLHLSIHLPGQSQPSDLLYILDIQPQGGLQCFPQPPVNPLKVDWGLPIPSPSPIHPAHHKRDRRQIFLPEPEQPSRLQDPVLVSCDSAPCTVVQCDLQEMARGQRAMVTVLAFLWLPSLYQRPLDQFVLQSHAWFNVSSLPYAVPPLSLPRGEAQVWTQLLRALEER
T4 sequence (P05106 27-718 limits assumed): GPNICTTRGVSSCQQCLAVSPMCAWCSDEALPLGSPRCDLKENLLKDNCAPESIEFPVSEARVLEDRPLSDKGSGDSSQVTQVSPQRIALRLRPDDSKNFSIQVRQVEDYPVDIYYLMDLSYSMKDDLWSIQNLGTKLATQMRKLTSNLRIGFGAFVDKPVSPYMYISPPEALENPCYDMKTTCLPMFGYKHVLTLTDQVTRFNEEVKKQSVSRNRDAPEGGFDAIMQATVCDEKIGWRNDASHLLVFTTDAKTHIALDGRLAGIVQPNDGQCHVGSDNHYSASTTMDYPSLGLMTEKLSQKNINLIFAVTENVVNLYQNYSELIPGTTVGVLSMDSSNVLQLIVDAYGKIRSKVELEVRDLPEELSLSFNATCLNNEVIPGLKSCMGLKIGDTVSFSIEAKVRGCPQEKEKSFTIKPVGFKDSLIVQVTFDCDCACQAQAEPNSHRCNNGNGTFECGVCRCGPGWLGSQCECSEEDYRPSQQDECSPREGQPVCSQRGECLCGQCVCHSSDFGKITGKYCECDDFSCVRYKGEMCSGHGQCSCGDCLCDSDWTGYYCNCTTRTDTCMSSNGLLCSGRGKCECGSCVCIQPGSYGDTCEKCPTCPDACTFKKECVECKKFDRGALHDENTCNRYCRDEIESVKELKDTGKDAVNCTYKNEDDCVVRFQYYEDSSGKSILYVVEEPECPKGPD
Put plainly: ELISA competition assay, integrin αIIbβ3. It is filed as binding.

[5] abbreviates: αvβ6 IC50, ELISA competition vs LAP, n ≥ 3.

SMILES strings stand for the structures. Like-named read-outs stand apart in the source and are kept apart here. Bridge positions count the residues as written; N and C are the ends. Side chains are listed from the residue outwards. Peptide text beside a SMILES is read from it. * marks the point of attachment. Butanoyl(4-(4-I-phenyl)) = O=C(CCCc1ccc(I)cc1)*; PEG2 = NCCOCCOCCC(=O)O

In general, IC50 refers to the concentration at which inhibition is half-maximal. As for `COc1ccc([C@H](CC(=O)O)N2CCN(CCCc3ccc4c(n3)NCCC4)C2=O)cn1` [MK-0429, reference compound], the 50% inhibitory concentration (IC50) on integrin αvβ1 (read-out: αvβ1 IC50, ELISA competition) stood at 1 nM; on integrin αvβ5 (read-out: αvβ5 IC50, ELISA competition), 0.08 nM; at integrin α5β1 (read-out: α5β1 IC50, ELISA competition), 18 nM; on integrin αvβ6 [1] (read-out: Human αvß6 IC50, ELISA run in triplicate, Table S1) it was 1 nM; at integrin αvβ6 [1] (read-out: αvβ6 IC50, ELISA competition vs LAP, n ≥ 3), 1.3 nM; at integrin αvβ8 [2] (read-out: αvβ8 IC50, ELISA competition vs LAP, mean, n ≥ 3), 0.7 nM. Further, the IC50 on integrin αvβ3 (read-out: αvβ3 IC50, ELISA competition, mean, n ≥ 3) came out at 0.7 nM; at integrin α8β1 (read-out: α8β1 IC50, ELISA competition) it was 9 nM; at Mouse αvβ6 (read-out: Mouse αvß6 IC50, ELISA run in triplicate, mean, Table S1), 2 nM.
As to `CC[C@H](C)[C@H](NC(=O)[C@H](CC(C)C)NC(=O)[C@H](CC(=O)O)NC(=O)CNC(=O)[C@H](CCCNC(=N)N)NC(=O)[C@H](CCC(N)=O)NC(=O)[C@H](Cc1ccccc1)NC(=O)[C@H](Cc1ccc(O)cc1)NC(=O)[C@@H]1CCC(=O)NCC(=O)NCC(=O)N[C@@H](C)C(=O)NCC(=O)N[C@@H](Cc2c[nH]cn2)C(=O)N[C@@H](C(C)C)C(=O)N2CCC[C@H]2C(=O)N1)C(=O)N[C@@H](CO)C(=O)N[C@@H](Cc1ccccc1)C(=O)N[C@@H](Cc1ccc(O)cc1)C(=O)NCC(=O)O` [lassotide 21] (GGAGHVPEYFQRGDLISFYG-OH; lactam N-8; C-terminus assumed), the 50% inhibitory concentration (IC50) is 16 nM at integrin αvβ6 [3]; 40 nM on integrin αvβ6 [1] (Human αvß6 IC50, ELISA run in triplicate, Table S1); 39 nM on integrin αvβ8 [4]; 44 nM at Mouse αvβ6.
As to `CC(C)C[C@H](NC(=O)[C@H](CC(=O)O)NC(=O)CNC(=O)[C@H](CCCNC(=N)N)NC(=O)[C@@H](NC(=O)[C@H](Cc1ccccc1)NC(=O)[C@H](Cc1ccc(O)cc1)NC(=O)[C@@H]1CCC(=O)NCC(=O)NCC(=O)N[C@@H](CCCNC(=N)N)C(=O)NCC(=O)N[C@@H](Cc2c[nH]cn2)C(=O)N[C@@H](C(C)C)C(=O)N2CCC[C@H]2C(=O)N1)C(C)C)C(=O)N[C@@H](CCC(N)=O)C(=O)N[C@@H](CO)C(=O)N[C@@H](Cc1ccccc1)C(=O)N[C@@H](Cc1ccc(O)cc1)C(=O)NCC(=O)O` [lassotide 38] (GGRGHVPEYFVRGDLQSFYG-OH; lactam N-8), the half-inhibitory concentration (IC50) was 13 nM on integrin αvβ1; over 10000 nM on integrin αvβ5; 397 nM at integrin α5β1; 3 nM at integrin αvβ6 [1] (setting [5]); 126 nM on integrin αIIbβ3; 185 nM at integrin αvβ3. The 50% inhibitory concentration (IC50) at integrin α8β1 was determined as 1290 nM; on Mouse αvβ6, 4 nM.
Turning to `CC(C)C[C@H](NC(=O)[C@H](CC(=O)O)NC(=O)CNC(=O)[C@H](CCCNC(=N)N)NC(=O)[C@@H](NC(=O)[C@H](Cc1ccccc1)NC(=O)[C@H](Cc1ccc(O)cc1)NC(=O)[C@@H]1CCC(=O)NCC(=O)NCC(=O)N[C@@H](CCCCNC(=O)CCOCCOCCNC(=O)CCCc2ccc(I)cc2)C(=O)NCC(=O)N[C@@H](Cc2c[nH]cn2)C(=O)N[C@@H](C(C)C)C(=O)N2CCC[C@H]2C(=O)N1)C(C)C)C(=O)N[C@@H](CCC(N)=O)C(=O)N[C@@H](CO)C(=O)N[C@@H](Cc1ccccc1)C(=O)N[C@@H](Cc1ccc(O)cc1)C(=O)NCC(=O)O` [lassotide 48] (GGK([PEG2-Butanoyl(4-(4-I-phenyl))])GHVPEYFVRGDLQSFYG-OH; lactam N-8; C-terminus assumed), the IC50 at integrin αvβ1 is 46 nM; at integrin αvβ5, over 10000 nM; on integrin α5β1, 2590 nM; on integrin αvβ6 [1] (setting [5]) it was 0.7 nM; on integrin αvβ8 [2], 0.8 nM; on integrin αIIbβ3, 446 nM. Also, the values for the IC50 at integrin αvβ3 and on integrin α8β1 were 315 nM and over 10000 nM, respectively.
